Results reported in paper PMC6792352, “Limited Chemical Structural Diversity Found to Modulate Thyroid Hormone Receptor in the Tox21 Chemical Library” (Environmental Health Perspectives, 2019).
Structures can show the parent of a compound that is named as a salt.

Assay: in vitro
Conditions: rat, gh3-tre-luc cells, AC50 (uM) modified / 1000

| SMILES | CC50 at 24 h |
| --- | --- |
| CC/C=C\CCOC(=O)c1ccccc1 [(3Z)-Hex-3-en-1-yl benzoate] | > 90 µM |
| C=C(C)C(=O)OCCO [2-Hydroxyethyl methacrylate] | > 90 µM |
| C=CCn1cc[n+](C)c1 [1-Allyl-3-methylimidazolium chloride] | > 90 µM |
| c1ccc(C2CO2)cc1 (centres unmarked) [Styrene oxide] | > 90 µM |
| CC(=O)Oc1cccc(O)c1 [Resorcinol monoacetate] | > 50 µM |
| COC=O [Methyl formate] | > 8 µM |
| C1C2OC2C2C1C1CC2C2OC12 (centres unmarked) [Dicyclopentadiene dioxide] | > 90 µM |
| CCCOc1nn(C(=O)NS(=O)(=O)c2ccccc2C(=O)OC)c(=O)n1C [Propoxycarbazone-sodium] | > 90 µM |
| CCOC(=O)C1=C(C)NC(C)=C(C(=O)OC)C1c1cccc(Cl)c1Cl (centres unmarked) [Felodipine] | 13.5 µM |
| Nc1nc2c(ncn2COCCO)c(=O)[nH]1 [Acyclovir] | > 20 µM |
| CN(C)CCCNCCCN(C)C [N'-[3-(Dimethylamino)propyl]-N,N-dimethylpropane-1,3-diamine] | > 90 µM |
| C[N+](C)(C)CC(=O)O [Betaine monohydrate] | > 90 µM |
| Cc1ccc(C(=O)c2ccc(CC(=O)O)n2C)cc1 [Tolmetin sodium dihydrate] | > 20 µM |
| C=CCN1C[C@H](C(=O)N(CCCN(C)C)C(=O)NCC)C[C@@H]2c3cccc4[nH]cc(c34)C[C@H]21 [Cabergoline] | 5.04 µM |
| OCCN(CCO)c1ccccc1 [N-Phenyldiethanolamine] | > 90 µM |
| C[C@H](CCC(=O)O)[C@H]1CC[C@H]2[C@@H]3C(=O)C[C@@H]4CC(=O)CC[C@]4(C)[C@H]3CC(=O)[C@]12C [Dehydrocholic acid] | > 50 µM |
| CCN(C)N=O [N-Nitroso-N-methylethylamine] | > 90 µM |
| Oc1cc2ccccc2c2ccccc12 [9-Phenanthrol] | 6.81 µM |
| O=c1oc2c(O)c(O)cc3c(=O)oc4c(O)c(O)cc1c4c23 [Ellagic acid] | > 50 µM |
| C[C@H](O)CCO [1,3-Butanediol] | > 90 µM |
| SCCSCCS [2,2'-Sulfanediyldiethanethiol] | > 90 µM |
| C=C(C)C(=O)NCCCN(C)C [N-[3-(Dimethylamino)propyl]methacrylamide] | > 90 µM |
| CCC(=O)c1ccc(O)cc1 [Paroxypropione] | > 50 µM |

| SMILES | CC50 at 24 h |
| --- | --- |
| Oc1c(Br)cc(Br)c2cccnc12 [Broxyquinoline] | 24.9 µM |
| NC(N)=Nc1nc(CSCCC(N)=NS(N)(=O)=O)cs1 [Famotidine] | > 90 µM |
| CCOC(=O)[C@H](CCc1ccccc1)N[C@H]1CCc2ccccc2N(CC(=O)O)C1=O [Benazepril hydrochloride] | 5.95 µM |
| CCCCCCCCCCCCCC(=O)OCC [Ethyl tetradecanoate] | > 90 µM |
| CCC(C)c1cc(C(C)(C)C)c(O)c(C(C)(C)C)c1 (centres unmarked) [4-(Butan-2-yl)-2,6-di-tert-butylphenol] | > 90 µM |
| Cc1cccc(N(C)C(=S)Oc2ccc3c(c2)CCC3)c1 [Tolindate] | > 50 µM |
| Brc1ccc(Oc2ccccc2)cc1 [p-Bromodiphenyl ether] | > 90 µM |
| CC(C)(C)NCC(O)COc1ccc(NC(=O)NC2CCCCC2)cc1 (centres unmarked) [Talinolol] | > 50 µM |
| Cc1ccc(/C=N/n2c(-c3ccccc3)csc2=S)cc1 [Fezatione] | > 50 µM |
| c1ccc2[nH]nnc2c1 [1,2,3-Benzotriazole] | > 90 µM |
| CC(C)CCOC(=O)c1ccc(N(C)C)cc1 [Padimate] | > 50 µM |
| O=C(CCCN1CCC2(CC1)C(=O)NCN2c1ccccc1)c1ccc(F)cc1 [Spiperone] | 14.1 µM |
| CCCCCCOC(=O)CC [Hexyl propanoate] | > 90 µM |
| NCCCCCC(=O)O [6-Aminocaproic acid] | > 20 µM |
| CC1=C2[C@H](/C=C(\C)C(=O)O)CC[C@@H](C)[C@H]2CC1 [Valerenic acid] | > 100 µM |
| CC(C)(C)NCC(O)CSc1nc(-c2ccc(C(N)=O)s2)cs1 (centres unmarked) [Arotinolol hydrochloride] | > 50 µM |
| O=C(CCc1ccc(O)cc1)c1c(O)cc(O)cc1O [Phloretin] | 61.2 µM |
| CCN(CC)CCOC(=O)[C@H](Cc1cccc2ccccc12)C[C@H]1CCCO1 [Nafronyl oxalate] | > 20 µM |
| CN1CCN(CCC(=O)N2c3ccccc3Sc3ccc(C(F)(F)F)cc32)CC1 [Ftormetazine] | 25.8 µM |
| C#C[C@]1(O)CC[C@H]2[C@@H]3[C@H](C)CC4=C(CCC(=O)C4)[C@H]3CC[C@@]21C [Tibolone] | 51.8 µM |
| OCC(O)COc1ccc(Cl)cc1 (centres unmarked) [Chlorphenesin] | > 50 µM |
| On1ccccc1=S [Sodium (2-pyridylthio)-N-oxide] | 1.83 µM |
| C=COCCOCCOCCOC=C [3,6,9,12-Tetraoxatetradeca-1,13-diene] | > 90 µM |

| SMILES | CC50 at 24 h |
| --- | --- |
| CC[N+]1(C)CCCC(OC(=O)C(O)(c2ccccc2)c2ccccc2)C1 (centres unmarked) [Pipenzolate bromide] | > 50 µM |
| O=c1cc[nH]c(=O)[nH]1 [Uracil] | > 90 µM |
| Nc1ccccc1 [Anilinium nitrate] | > 50 µM |
| Nc1ccc(C(=O)Nc2ccccc2N)cc1 [Dianiline] | 14.1 µM |
| CC(=O)Nc1ccc(C)cc1 [N-Acetyl-p-toluidine] | > 90 µM |
| CC(=O)c1ccc(C)cc1 [p-Methylacetophenone] | > 90 µM |
| CCOC(=O)[C@H](CCc1ccccc1)N[C@@H](C)C(=O)N1Cc2ccccc2C[C@H]1C(=O)O [Quinapril hydrochloride] | > 90 µM |
| O=Cc1ccc(F)c(Br)c1 [3-Bromo-4-fluorobenzaldehyde] | > 90 µM |
| C[C@H](O)C(=O)Nc1c(I)c(C(=O)NC(CO)CO)c(I)c(C(=O)NC(CO)CO)c1I [Iopamidol] | > 20 µM |
| CC(=O)CC(=O)Nc1ccc(S(=O)(=O)O)cc1 [Potassium 4-[(3-oxobutanoyl)amino]benzenesulfonate] | > 90 µM |
| N#CC1(N=NC2(C#N)CCCCC2)CCCCC1 [1,1'-Diazene-1,2-diyldicyclohexanecarbonitrile] | > 90 µM |
| O=C1CN=C(c2ccccc2)c2cc([N+](=O)[O-])ccc2N1 [Nitrazepam] | > 50 µM |
| CCCCCCCCCCOC(=O)c1ccccc1C(=O)OCCCCCCCCCC [Didecyl phthalate] | > 90 µM |
| c1ccc2c(c1)[nH]c1ccccc12 [Carbazole] | > 90 µM |
| C=C(C)C(=O)OCCOC(=O)CC(C)=O [2-[Methacryloyloxy]ethyl acetoacetate] | > 90 µM |
| O=c1c2ccccc2oc2ccccc12 [Xanthone] | > 90 µM |
| NCCN1CCNCC1 [1-(2-Aminoethyl)piperazine] | > 90 µM |
| NCc1ccccc1Sc1ccccc1CO [Bipenamol] | > 50 µM |
| COC(=O)C(Cl)C(=O)OC [Dimethyl chloromalonate] | > 50 µM |
| C=C1[C@@H]2CC[C@@H](C2)C1(C)C [Camphene] | > 90 µM |
| NC(=O)CCCCC1CCSS1 (stereo not drawn) [alpha-Lipoic acid amide] | > 50 µM |
| Oc1ccc(C(=C(Cl)Cl)c2ccc(O)cc2)cc1 [Bis(4-hydroxyphenyl)-2,2-dichloroethylene] | > 90 µM |

Same assay, conditions: rat, gh3-tre-luc cells, AC50 (uM) modified / 1000, Tox21_110001=Tox21_110843; viability, 1 nM T3 present, 24 h

| SMILES | CC50 at 24 h |
| --- | --- |
| COP(=O)(OC)C(O)C(Cl)(Cl)Cl (centres unmarked) [Trichlorfon] | > 50 µM |

Same assay, conditions: rat, gh3-tre-luc cells, AC50 (uM) modified / 1000, Tox21_110001=Tox21_111517; viability, 1 nM T3 present, 24 h

| SMILES | CC50 at 24 h |
| --- | --- |
| C=CCC1(C(C)CCC)C(=O)N=C(S)NC1=O (centres unmarked) [Thiamylal sodium] | > 50 µM |

Same assay, conditions: rat, gh3-tre-luc cells, AC50 (uM) modified / 1000, Tox21_110001=Tox21_112881; viability, 1 nM T3 present, 24 h

| SMILES | CC50 at 24 h |
| --- | --- |
| NC1(c2ccccc2)CCCCC1 [1-Phenylcyclohexylamine hydrochloride] | 40.7 µM |

Same assay, conditions: rat, gh3-tre-luc cells, AC50 (uM) modified / 1000, Tox21_110001=Tox21_200189; viability, 1 nM T3 present, 24 h

| SMILES | CC50 at 24 h |
| --- | --- |
| BrC(Br)Br [Bromoform] | > 90 µM |

Same assay, conditions: rat, gh3-tre-luc cells, AC50 (uM) modified / 1000, Tox21_110001=Tox21_200857; viability, 1 nM T3 present, 24 h

| SMILES | CC50 at 24 h |
| --- | --- |
| NC(N)=[Se] [Selenourea] | > 90 µM |

Same assay, conditions: rat, gh3-tre-luc cells, AC50 (uM) modified / 1000, Tox21_110001=Tox21_200894; viability, 1 nM T3 present, 24 h

| SMILES | CC50 at 24 h |
| --- | --- |
| O=C(O)C(Cl)Br (centres unmarked) [Bromochloroacetic acid] | > 90 µM |

Same assay, conditions: rat, gh3-tre-luc cells, AC50 (uM) modified / 1000, Tox21_110001=Tox21_201196; viability, 1 nM T3 present, 24 h

| SMILES | CC50 at 24 h |
| --- | --- |
| ClC(Cl)=C(Cl)Cl [Tetrachloroethylene] | > 90 µM |

Same assay, conditions: rat, gh3-tre-luc cells, AC50 (uM) modified / 1000, Tox21_110001=Tox21_201607; viability, 1 nM T3 present, 24 h

| SMILES | CC50 at 24 h |
| --- | --- |
| COP(=O)(OC)C(O)C(Cl)(Cl)Cl (centres unmarked) [Trichlorfon] | > 90 µM |

Same assay, conditions: rat, gh3-tre-luc cells, AC50 (uM) modified / 1000, Tox21_110001=Tox21_300810; viability, 1 nM T3 present, 24 h

| SMILES | CC50 at 24 h |
| --- | --- |
| CCOC(=O)Cc1ccccc1 [Ethyl phenylacetate] | > 90 µM |

Same assay, conditions: rat, gh3-tre-luc cells, AC50 (uM) modified / 1000, Tox21_110001=Tox21_301003; viability, 1 nM T3 present, 24 h

| SMILES | CC50 at 24 h |
| --- | --- |
| Cc1nc(N(C)C)nc(OC(=O)N(C)C)c1C [Pirimicarb] | > 90 µM |

Same assay, conditions: rat, gh3-tre-luc cells, AC50 (uM) modified / 1000, Tox21_110001=Tox21_301347; viability, 1 nM T3 present, 24 h

| SMILES | CC50 at 24 h |
| --- | --- |
| COP(=S)(OC)Oc1c(Cl)cc(C)cc1Cl [Tolclofos-methyl] | > 90 µM |

Same assay, conditions: rat, gh3-tre-luc cells, AC50 (uM) modified / 1000, Tox21_110001=Tox21_301428; viability, 1 nM T3 present, 24 h

| SMILES | CC50 at 24 h |
| --- | --- |
| COC(=O)C1(O)c2ccccc2-c2ccccc21 [Flurenol-methyl] | > 90 µM |

Same assay, conditions: rat, gh3-tre-luc cells, AC50 (uM) modified / 1000, Tox21_110001=Tox21_302008; viability, 1 nM T3 present, 24 h

| SMILES | CC50 at 24 h |
| --- | --- |
| C#CCOC(=O)/C=C(C)/C=C/CC(C)CCCC(C)C (centres unmarked) [Kinoprene] | > 90 µM |

Same assay, conditions: rat, gh3-tre-luc cells, AC50 (uM) modified / 1000, Tox21_110001=Tox21_302247; viability, 1 nM T3 present, 24 h

| SMILES | CC50 at 24 h |
| --- | --- |
| CCC(Br)(CC)C(=O)NC(N)=O [Carbromal] | > 90 µM |

Same assay, conditions: rat, gh3-tre-luc cells, AC50 (uM) modified / 1000, Tox21_110001=Tox21_400042; viability, 1 nM T3 present, 24 h

| SMILES | CC50 at 24 h |
| --- | --- |
| OCCCBr [3-Bromo-1-propanol] | > 90 µM |
